Test results: ChEMBL document CHEMBL1139189, “Preparation of novel antibacterial agents. Replacement of the central aromatic ring with heterocycles” (2007)
In brackets after ≈: the same amount, converted by molar mass.

Experiments:
Assay type in all cases: functional
[1] = tested on: Staphylococcus aureus; assay: Antibacterial activity against Staphylococcus aureus UC 9218 in presence of 10% human serum
[2] = tested on: Staphylococcus aureus; assay: Antibacterial activity against Staphylococcus aureus UC 9218
[3] = tested on: Streptococcus pneumoniae; assay: Antibacterial activity against Streptococcus pneumoniae UC 9912
[4] = tested on: Haemophilus influenzae; assay: Antibacterial activity against Haemophilus influenzae 30063
[5] = tested on: Staphylococcus epidermidis; assay: Antibacterial activity against Staphylococcus epidermidis UC 12084
[6] = tested on: Enterococcus faecalis; assay: Antibacterial activity against Enterococcus faecalis UC 9217
[7] = tested on: Staphylococcus aureus; assay: Antibacterial activity against Staphylococcus aureus UC 9218 in presence of 5% human serum

SMILES: N#Cc1ccc(NC(=O)c2cc(-c3ccccc3)on2)c(C(=O)O)c1
- MIC [1]: 8 µg/mL
- MIC [2]: 0.25 µg/mL (≈ 0.75 µM)

SMILES: CCCN(CCC)S(=O)(=O)c1ccc(C(=O)Oc2cc3ccccc3cc2C(=O)Oc2cc3ccccc3cc2C(=O)O)cc1
- MIC [3]: 8 µg/mL (≈ 12.8 µM)
- MIC [4]: > 128 µg/mL
- MIC [5]: 16 µg/mL (≈ 25.6 µM)
- MIC [2]: 16 µg/mL (≈ 25.6 µM)
- MIC [6]: 32 µg/mL (≈ 51.1 µM)

SMILES: N#Cc1ccc(NC(=O)c2cc3ccccc3o2)c(C(=O)O)c1
- MIC [1]: 32 µg/mL
- MIC [2]: 2 µg/mL (≈ 6.53 µM)

SMILES: N#Cc1ccc(NC(=O)c2cc(SCc3ccccc3)on2)c(C(=O)O)c1
- MIC [3]: > 128 µg/mL
- MIC [5]: 0.125 µg/mL (≈ 0.329 µM)
- MIC [1]: 4 µg/mL
- MIC [2]: 0.125 µg/mL (≈ 0.329 µM)
- MIC [6]: > 128 µg/mL

SMILES: N#Cc1ccc(NC(=O)c2noc(-c3ccccc3)n2)c(C(=O)O)c1
- MIC [1]: 32 µg/mL
- MIC [2]: 4 µg/mL (≈ 12 µM)

SMILES: N#Cc1ccc(NC(=O)c2cnccn2)c(C(=O)O)c1
- MIC [1]: > 128 µg/mL
- MIC [2]: 128 µg/mL (≈ 477 µM)

SMILES: N#Cc1ccc(NC(=O)c2noc3ccccc23)c(C(=O)O)c1
- MIC [1]: 16 µg/mL
- MIC [2]: 0.5 µg/mL (≈ 1.63 µM)

SMILES: Cc1nn(-c2ccccc2)nc1C(=O)Nc1ccc(C#N)cc1C(=O)O
- MIC [1]: > 128 µg/mL
- MIC [2]: 4 µg/mL (≈ 11.5 µM)

SMILES: N#Cc1ccc(NC(=O)c2ncc(-c3ccccc3)s2)c(C(=O)O)c1
- MIC [1]: 16 µg/mL
- MIC [2]: 1 µg/mL (≈ 2.86 µM)

SMILES: N#Cc1ccc(NC(=O)c2nc3ccccc3s2)c(C(=O)O)c1
- MIC [1]: 8 µg/mL
- MIC [2]: 0.25 µg/mL (≈ 0.773 µM)

SMILES: N#Cc1ccc(NC(=O)c2nsc(-c3ccccc3)c2Cl)c(C(=O)O)c1
- MIC [1]: 32 µg/mL
- MIC [2]: 0.5 µg/mL (≈ 1.3 µM)

SMILES: N#Cc1ccc(NC(=O)c2nc(-c3ccccc3)cs2)c(C(=O)O)c1
- MIC [1]: 32 µg/mL
- MIC [2]: 8 µg/mL (≈ 22.9 µM)

SMILES: CCCC(CCC)NS(=O)(=O)c1ccc(C(=O)Nc2cc3ccccc3cc2C(=O)O)cc1
- MIC [7]: > 128 µg/mL
- MIC [3]: 64 µg/mL (≈ 137 µM)
- MIC [4]: > 128 µg/mL
- MIC [5]: 16 µg/mL (≈ 34.1 µM)
- MIC [2]: 64 µg/mL (≈ 137 µM)
- MIC [6]: 128 µg/mL (≈ 273 µM)

SMILES: N#Cc1ccc(NC(=O)c2cc3ccccc3[nH]2)c(C(=O)O)c1
- MIC [1]: 32 µg/mL
- MIC [2]: 2 µg/mL (≈ 6.55 µM)

SMILES: N#Cc1ccc(NC(=O)c2cc3cccnc3s2)c(C(=O)O)c1
- MIC [1]: 32 µg/mL
- MIC [2]: 4 µg/mL (≈ 12.4 µM)

SMILES: N#Cc1ccc(NC(=O)c2cc3cc(-c4ccccc4)oc3cn2)c(C(=O)O)c1
- MIC [1]: > 128 µg/mL
- MIC [2]: > 128 µg/mL

SMILES: O=C(Nc1ccc(Br)cc1C(=O)O)c1ccc(S(=O)(=O)N2CCc3cc(Cl)ccc32)cc1
- MIC [7]: > 128 µg/mL
- MIC [3]: 4 µg/mL (≈ 7.47 µM)
- MIC [4]: 128 µg/mL (≈ 239 µM)
- MIC [5]: 4 µg/mL (≈ 7.47 µM)
- MIC [2]: 0.5 µg/mL (≈ 0.933 µM)
- MIC [6]: 32 µg/mL (≈ 59.7 µM)

SMILES: N#Cc1ccc(NC(=O)c2cc(-c3ccccc3)no2)c(C(=O)O)c1
- MIC [1]: 8 µg/mL
- MIC [2]: 0.5 µg/mL (≈ 1.5 µM)

SMILES: CCOc1nc(SCc2ccccc2)ncc1C(=O)Nc1ccc(C#N)cc1C(=O)O
- MIC [1]: > 128 µg/mL
- MIC [2]: 8 µg/mL (≈ 18.4 µM)

SMILES: N#Cc1ccc(NC(=O)c2ncc(-c3ccccc3)o2)c(C(=O)O)c1
- MIC [1]: 8 µg/mL
- MIC [2]: 0.5 µg/mL (≈ 1.5 µM)

SMILES: CN[C@H](CC(C)C)C(=O)N[C@H]1C(=O)N[C@@H](CC(N)=O)C(=O)N[C@H]2C(=O)N[C@H]3C(=O)N[C@H](C(=O)N[C@H](C(=O)O)c4cc(O)cc(O)c4-c4cc3ccc4O)[C@H](O)c3ccc(c(Cl)c3)Oc3cc2cc(c3O[C@@H]2O[C@H](CO)[C@@H](O)[C@H](O)[C@H]2O[C@H]2C[C@](C)(N)[C@H](O)[C@H](C)O2)Oc2ccc(cc2Cl)[C@H]1O [VANCOMYCIN]
- MIC [3]: 0.25 µg/mL (≈ 0.173 µM)
- MIC [4]: 0.015 µg/mL (≈ 0.0104 µM)
- MIC [6]: 1 µg/mL (≈ 0.69 µM)

SMILES: Cc1coc2cnc(C(=O)Nc3ccc(C#N)cc3C(=O)O)cc12
- MIC [1]: 64 µg/mL
- MIC [2]: 16 µg/mL (≈ 49.8 µM)

SMILES: N#Cc1ccc(NC(=O)c2coc(-c3ccccc3)n2)c(C(=O)O)c1
- MIC [1]: > 128 µg/mL
- MIC [2]: 64 µg/mL (≈ 192 µM)
